Experimental data reported in patent publication US20040029823A1, “Antisense oligonucleotide compositions and methods for the modulation of JNK proteins” (priority 1997, published 2004).
Strand notation (5' to 3'): a small letter for the sugar, then the base; units joined by * are phosphorothioate-linked, units joined directly phosphodiester-linked; [ ] holds rarer units or linkages, { } end groups; capitals alone tell only the bases. e = 2'-O-(2-methoxyethyl) (MOE); [5mC] = 5-methylcytosine; d = 2'-deoxy (DNA)

What was measured:
JNK1 mRNA = assay: Northern assay of JNK1 mRNA expression in A549 cells; assay type: cell-based, human; details: for RNA % Control / RNA % Inhibition: 300 nM for 20 hours then 200 nM for 4 hours
Experimental: (§1) In order to evaluate the activity of potential JNK-modulating oligonucleotides, human lung carcinoma cell line A549 (American Type Culture Collection, Rockville, Md. No. ATCC CCL-185) cells or other cell lines as indicated in the Examples, were grown and treated with oligonucleotides or control solutions as detailed below. After harvesting, cellular extracts were prepared and examined for specific JNK mRNA levels or JNK protein levels (i.e., Northern or Western assays, respectively). In all cases, “% expression” refers to the amount of JNK-specific signal in an oligonucleotide-treated cell relative to an untreated cell (or a cell treated with a control solution that lacks oligonucleotide), and “% inhibition” is calculated as
100%−% Expression =% Inhibition.
Northern Assays: The mRNA expression of each JNK protein was determined by using a nucleic acid probe specifically hybridizable thereto. Nucleic acid probes specific for JNK1, JNK2 and JNK3 are described in Examples 3, 4 and 5, respectively. The probes were radiolabelled by means well known in the art (see, e.g., Short Protocols in Molecular Biology, 2nd Ed., Ausubel et al., Eds., John Wiley & Sons, New York, 1992, pages 3-11 to 2-3-44 and 4-17 to 4-18; Ruth, Chapter 6 In: Methods in Molecular Biology, Vol. 26: Protocols for Oligonucleotide Conjugates, Agrawal, ed., Humana Press Inc., Totowa, N.J., 1994, pages 167-185; and Chapter 10 In: Molecular Cloning: A Laboratory Manual, 2nd Ed., Sambrook et al., Eds., pages 10.1-10.70). The blots were stripped and reprobed with a ^32P-labeled glyceraldehyde 3-phosphate dehydrogenase (G3PDH) probe (Clontech Laboratories, Inc., Palo Alto, Calif.) in order to confirm equal loading of RNA and to allow the levels of JNK transcripts to be normalized with regard to the G3PDH signals.
A549 cells were grown in T-75 flasks until 80-90% confluent. At this time, the cells were washed twice with 10 mL of media (DMEM), followed by the addition of 5 mL of DMEM containing 20 μg/mL of LIPOFECTIN™ (i.e., 1:1 (w/w) DOTMA/DOPE, Life Technologies, Gaithersburg, Md.; DOTMA=N-[1-(2,3-dioleyoxy)propyl]-N,N,N-trimethylammonium chloride; DOPE=dioleoyl phosphatidylethanolamine). The oligonucleotides were added from a 10 μM stock solution to a final concentration of 400 nM, and the two solutions were mixed by swirling the flasks. As a control, cells were treated with LIPOFECTIN™ without oligonucleotide under the same conditions and for the same times as the oligonucleotide-treated samples. After 4 hours at 37° C., the medium was replaced with fresh DMEM containing 10% serum. The cells were allowed to recover for 18 hours. Total cellular RNA was then extracted in guanidinium, subject to gel electrophoresis and transferred to a filter according to techniques known in the art (see, e.g., Chapter 7 In: Molecular Cloning: A Laboratory Manual, 2nd Ed., Sambrook et al., Eds., pages 7.1-7.87, and Short Protocols in Molecular Biology, 2nd Ed., Ausubel et al., Eds., John Wiley & Sons, New York, 1992, pages 2-24 to 2-30 and 4-14 to 4-29). Filters were typically hybridized overnight to a probe specific for the particular JNK gene of interest in hybridization buffer (25 mM KPO4, pH 7.4; 5×SSC; 5× Denhardt's solution, 100 μg/ml Salmon sperm DNA and 50% formamide) (Alahari et al., Nucl. Acids Res., 1993, 21, 4079). This was followed by two washes with 1×SSC, 0.1% SDS and two washes with 0.25×SSC, 0.1% SDS. Hybridizing bands were visualized by exposure to X-OMAT AR film and quantitated using a PHOSPHORIMAGER™ essentially according to the manufacturer's instructions (Molecular Dynamics, Sunnyvale, Calif.)
B. JNK1-specific probes: In initial screenings of a set of oligonucleotides derived from the JNK1 sequence (Table 2) for biological activity, a cDNA clone of JNK1 (Derijard et al., Cell, 1994, 76, 1025) was radiolabeled and used as a JNK1-specific probe in Northern blots. […]

JNK1 protein = assay: Western assay of JNK1 protein levels in A549 cells; assay type: cell-based, human; details: 300 nM for 20 hours then 200 nM for 4 hours
Experimental: as §1
Western Assays: A549 cells were grown and treated with oligonucleotides as described above. Cells were lysed, and protein extracts were electrophoresed (SDS-PAGE) and transferred to nitrocellulose filters by means known in the art (see, e.g., Chapter 18 In: Molecular Cloning: A Laboratory Manual, 2nd Ed., Sambrook et al., Eds., pages 18.34, 18.47-18.54 and 18.60-18.75)). The amount of each JNK protein was determined by using a primary antibody that specifically recognizes the appropriate JNK protein. The primary antibodies specific for each JNK protein are described in the appropriate Examples. The primary antibodies were detected by means well known in the art (see, e.g., Short Protocols in Molecular Biology, 2nd Ed., Ausubel et al., Eds., John Wiley & Sons, New York, 1992, pages 10-33 to 10-35; and Chapter 18 In: Molecular Cloning: A Laboratory Manual, 2nd Ed., Sambrook et al., Eds., pages 18.1-18.75 and 18.86-18.88) and quantitated using a PHOSPHORIMAGER™ essentially according to the manufacturer's instructions (Molecular Dynamics, Sunnyvale, Calif.).
F. Western Assays: In order to assess the effect of oligonucleotides targeted to JNK1 mRNAs on JNK1 protein levels, Western assays were performed essentially as described above in Example 2, with the following exception(s) and/or modification(s). A primary antibody that specifically binds to JNK1 (catalog No. sc-474-G) was purchased from Santa Cruz Biotechnology, Inc. (Santa Cruz, Calif.; other JNK1-specific antibodies are available from StressGen Biotechnologies, Inc., Victoria, BC, Canada; and Research Diagnostics, Inc., Flanders, N.J.). In this experiment, cells were grown and treated with oligonucleotide at 300 nM for the initial 20 hours and then at 200 nM for 4 hours. At t=48 h, aliquots were removed for Northern and Western analyses, and fresh media was added to the cells. Aliquots for analysis were also taken at t=72 h. The samples from t=48 h and t=72 h were analyzed using the Northern and Western assays described above.

[1] = JNK1 mRNA time course, t=0 h after 4 hour treatment
[2] = JNK1 mRNA time course, time 272 h [sic] (t=72 h in text)
[3] = JNK1 mRNA, chemically modified oligonucleotides, dose 100 nM
[4] = JNK1 mRNA, chemically modified oligonucleotides, dose 400 nM

Row | Substance | Normalized % Control (JNK1 mRNA; [3]) [%] | Normalized % Control (JNK1 mRNA; [4]) [%] | RNA % Control (JNK1 mRNA; JNK1 mRNA, t = 48 h) [%] | RNA % Control (JNK1 mRNA; JNK1 mRNA, t = 72 h) [%] | Protein % Control (JNK1 protein; t = 48 h) [%] | Protein % Control (JNK1 protein; t = 72 h) [%] | RNA % Inhibition (JNK1 mRNA; JNK1 mRNA, t = 72 h) | Protein % Inhibition (JNK1 protein; t = 48 h) | Protein % Inhibition (JNK1 protein; t = 72 h) [%] | RNA % Inhibition (JNK1 mRNA; JNK1 mRNA, t = 48 h) [%] | further results
1 | 12539 (antisense CTCTCTGTAGGCCCGCTTGG; DNA, all phosphorothioate, methylation of C not given here) [compound 12539] | 56.4 | 26.7 | 6.7 | 11.7 | 44.3 | 29.2 |  |  |  |  | Normalized % Control (JNK1 mRNA; JNK1 mRNA dose response, 50 nM): 70.3%; Normalized % Control (JNK1 mRNA; JNK1 mRNA dose response, 100 nM): 51.6%; Normalized % Control (JNK1 mRNA; JNK1 mRNA dose response, 200 nM): 22.4%; Normalized % Control (JNK1 mRNA; JNK1 mRNA dose response, 400 nM): 11.1%; % INHIBITION (JNK1 mRNA; [1]): 85.9%; Normalized % Control (JNK1 mRNA; [1]): 14.1%; % INHIBITION (JNK1 mRNA; JNK1 mRNA time course, t=4 h): 94.1%; Normalized % Control (JNK1 mRNA; JNK1 mRNA time course, t=4 h): 5.9%; % INHIBITION (JNK1 mRNA; JNK1 mRNA time course, t=12 h): 88.4%; Normalized % Control (JNK1 mRNA; JNK1 mRNA time course, t=12 h): 11.6%; % INHIBITION (JNK1 mRNA; JNK1 mRNA time course, t=48 h): 79.0%; Normalized % Control (JNK1 mRNA; JNK1 mRNA time course, t=48 h): 21.0%; % INHIBITION (JNK1 mRNA; [2]): 58.5%; Normalized % Control (JNK1 mRNA; [2]): 41.5%; % EXPRESSION (JNK1 mRNA; JNK1 mRNA, A549 cells, 400 nM oligonucleotide, relative to LIPOFECTIN-only control): 9%
2 | 15345 (antisense e[5mC]*eT*e[5mC]*eT*e[5mC]*eT*eG*eT*eA*eG*eG*e[5mC]*e[5mC]*e[5mC]*eG*e[5mC]*eT*eT*eG*eG) [compound 15345] | 95.4 | 89.1 | 70.3 | 187.4 | 105.0 | 87.8 | (0.0) % | (0.0) % | 12.2 |  | 
3 | 15347 (antisense CTCTCTGTAGGCCCGCTTGG; sugars from the 5' end e5 d9 e6, [5mC] at 1, 3, 5, 16, linkages o4 s10 o5 (s phosphorothioate, o phosphodiester), methylation of C not given here) [compound 15347] | 27.1 | 11.7 | 7.9 | 8.2 | 38.8 | 28.4 | 81.8% |  |  | 92.1 | inhibition of JNK1 mRNA expression (JNK1 mRNA; chemically modified derivatives of ISIS 12539, 400 nM (Table 5)): at least 88%
4 | 15348 (antisense CTCTCTGTAGGCCCGCTTGG; sugars from the 5' end e11 d9, [5mC] at 1, 3, 5, all phosphorothioate, methylation of C not given here) [compound 15348] | 30.4 | 32.9 | 24.3 | 28.0 | 58.3 | 41.7 | 72.0% | 41.7% | 58.3 | 75.7 | 
5 | 15349 (antisense CTCTCTGTAGGCCCGCTTGG; sugars from the 5' end d9 e11, [5mC] at 12, 13, 14, 16, all phosphorothioate, methylation of C not given here) [compound 15349] | 42.5 | 35.5 | 63.1 | 52.0 | 69.5 | 56.5 | 48.0% | 30.5% | 43.5 | 36.9 | 
6 | 15350 (antisense CTCTCTGTAGGCCCGCTTGG; sugars from the 5' end d9 e11, [5mC] at 12, 13, 14, 16, linkages s9 o10 (s phosphorothioate, o phosphodiester), methylation of C not given here) [compound 15350] | 71.1 | 41.3 | 49.2 | 54.4 | 71.7 | 58.4 | 45.6% | 28.3% | 41.6 | 50.0 | 
